This is an account of results in patent US11229636B2, “Substituted tetrahydroquinolinone compounds as ROR gamma modulators” (Aurigene Discovery Technologies Limited, priority 2015, dated 2022).

The subject of assay [1] is EL-4 murine lymphoma cell line. The conditions noted are these: cited from earlier work.
Assay [2] concerns the target ROR gamma ligand binding domain (Homo sapiens (Human), UniProt P51449). Description: ROR gamma luciferase reporter assay (GAL4-ROR gamma LBD, HEK293 cells). Type of assay: cell-based. The conditions noted are these: 48 hours treatment, read-out: RORγ luciferase Reporter assay: IC50 (nM) (in range). The method, boiled down: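 HEK293 cells were co-transfected with a GAL4 DBD–RORγ LBD fusion (hRluc vector) and a 9xGAL4 UAS luc2P reporter, then treated with compounds for 48 h. Bright-Glo luminescence was used to derive potency.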

The next assay has as its target RORγ LBD (Homo sapiens (Human), UniProt P51449). Description: ROR gamma radio-ligand binding assay (3H 25-Hydroxycholesterol competitive displacement, dextran charcoal method). The settings on record: for RORγ ligand binding assay: % inhibition @1 μM / inhibition at 1 µM: 1 μM compound; for RORγ ligand binding assay: % inhibition @ 10 μM / inhibition at 10 µM: 10 μM compound; for IC50: in range. The essentials:
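Human RORγ LBD (aa 247–497) was expressed as a GST fusion in E. coli and purified. For binding, 300 ng protein, 5 nM ³H-25-hydroxycholesterol and compound were incubated for 30 min at room temperature in 50 mM HEPES pH 7.5, 150 mM NaCl, 0.01% BSA and 5 mM MgCl2. After dextran-charcoal separation, the supernatant was counted and 10-point curves were fitted by variable-slope sigmoid.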

Sequence of ROR gamma ligand binding domain (P51449 269-508): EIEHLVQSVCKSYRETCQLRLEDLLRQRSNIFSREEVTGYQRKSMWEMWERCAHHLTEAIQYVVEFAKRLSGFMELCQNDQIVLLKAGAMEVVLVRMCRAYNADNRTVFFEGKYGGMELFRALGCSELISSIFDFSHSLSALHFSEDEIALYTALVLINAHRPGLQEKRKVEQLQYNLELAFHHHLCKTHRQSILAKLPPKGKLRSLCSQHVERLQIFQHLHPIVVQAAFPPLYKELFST
Sequence of RORγ LBD (P51449 268-518): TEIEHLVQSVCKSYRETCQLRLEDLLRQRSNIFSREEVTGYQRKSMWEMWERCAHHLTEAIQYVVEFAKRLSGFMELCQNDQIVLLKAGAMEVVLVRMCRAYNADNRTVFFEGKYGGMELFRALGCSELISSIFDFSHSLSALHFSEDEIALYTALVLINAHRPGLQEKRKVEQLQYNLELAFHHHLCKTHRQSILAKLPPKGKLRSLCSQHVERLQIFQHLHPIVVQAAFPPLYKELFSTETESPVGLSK

On to `OC(c1ccc(-c2ccc(CN3CCN(Cc4ccncc4)CC3)cc2)c(F)c1)(C(F)(F)F)C(F)(F)F` [SR2211], for which the “synthesis of IL-17” value in assay [1] was “suppress the synthesis of IL-17”.
Regarding `CCS(=O)(=O)c1ccc(CC(=O)Nc2ccc3c(n2)CCC(C)(c2cc(C)nc(C)n2)C3=O)cc1` (single isomer, unassigned) [compound 104, N-(6-(2,6-dimethylpyrimidin-4-yl)-6-methyl-5-oxo-5,6,7,8-tetrahydroquinolin-2-yl)-2-(4-(ethylsulfonyl)phenyl)acetamide], in assay [2], the IC50 lay within 100 to 500 nM. Moreover, at RORγ LBD, the “RORγ ligand binding assay: % inhibition @1 μM” value is listed as 94%, the “RORγ ligand binding assay: % inhibition @ 10 μM” value is on record as 88% and the IC50 was under 0.15 µM.
Regarding `CCS(=O)(=O)c1ccc(CC(=O)Nc2nc3c(cc2C)C(=O)C(C)(c2nccn4ccnc24)CC3)cc1` (centres unmarked) [Compound 11, 2-(4-(ethylsulfonyl)phenyl)-N-(6-(imidazo[1,2-a]pyrazin-8-yl)-3,6-dimethyl-5-oxo-5,6,7,8-tetrahydroquinolin-2-yl)acetamide], the half-maximal inhibitory concentration (IC50) in assay [2] was over 500 nM. On RORγ LBD, this molecule yielded an inhibition at 1 µM of 25% and an inhibition at 10 µM of 71%.
In the case of `CCS(=O)(=O)c1ccc(CC(=O)Nc2ccc3c(n2)CCC(C)(c2nccn4c(C)cnc24)C3=O)cc1` (centres unmarked) [Compound 49, 2-(4-(ethylsulfonyl)phenyl)-N-(6-methyl-6-(3-methylimidazo[1,2-a]pyrazin-8-yl)-5-oxo-5,6,7,8-tetrahydroquinolin-2-yl)acetamide], in assay [2], the half-maximal inhibitory concentration (IC50) lay within 100 to 500 nM. On RORγ LBD, this molecule yielded an inhibition at 1 µM of 93%, an inhibition at 10 µM of 82% and an IC50 of 0.15 to 0.3 µM.
Taken in the same sequence, the figures for `CCS(=O)(=O)c1ccc(CC(=O)Nc2ccc3c(n2)CCC(C)(c2ccc(C(C)C)nn2)C3=O)cc1` (centres unmarked) [Compound 62, 2-(4-(ethylsulfonyl)phenyl)-N-(6-(6-isopropylpyridazin-3-yl)-6-methyl-5-oxo-5,6,7,8-tetrahydroquinolin-2-yl)acetamide] were over 500 nM, 96%, 91% and under 0.15 µM.
Taken in the same sequence, the figures for `CCS(=O)(=O)c1ccc(CC(=O)Nc2cc(C)c3c(n2)CCC(C)(c2nc(C)cc(C)n2)C3=O)cc1` (centres unmarked) [Compound 29, N-(6-(4,6-dimethylpyrimidin-2-yl)-4,6-dimethyl-5-oxo-5,6,7,8-tetrahydroquinolin-2-yl)-2-(4-(ethylsulfonyl)phenyl)acetamide] were under 100 nM, 84%, 91% and 0.15 to 0.3 µM.
Turning to `CCC1(c2nccn3ccnc23)CCc2nc(NC(=O)Cc3ccc(S(=O)(=O)CC)cc3)ccc2C1=O` (centres unmarked) [Compound 14, N-(6-ethyl-6-(imidazo[1,2-a]pyrazin-8-yl)-5-oxo-5,6,7,8-tetrahydroquinolin-2-yl)-2-(4-(ethylsulfonyl)phenyl)acetamide], the half-inhibitory concentration (IC50) in assay [2] was over 500 nM. Besides, at RORγ LBD, the inhibition at 1 µM came out at 0% and 10 µM produced 26% inhibition.
Taken in the same sequence, the figures for `CCS(=O)(=O)c1ccc(CC(=O)Nc2cc(C)c3c(n2)CCC(C)(c2ccc(OC)cn2)C3=O)cc1` (centres unmarked) [Compound 20, 2-(4-(ethylsulfonyl)phenyl)-N-(6-(5-methoxypyridin-2-yl)-4,6-dimethyl-5-oxo-5,6,7,8-tetrahydroquinolin-2-yl)acetamide] were 100 to 500 nM, 76% and 95%.
As for `CCS(=O)(=O)c1ccc(CC(=O)Nc2ccc3c(n2)CCC(C)(c2ncc(OC)cn2)C3=O)cc1` (single isomer, unassigned) [compound 112, 2-(4-(ethylsulfonyl)phenyl)-N-(6-(5-methoxypyrimidin-2-yl)-6-methyl-5-oxo-5,6,7,8-tetrahydroquinolin-2-yl)acetamide], in assay [2], the concentration for half-maximal inhibition (IC50) was in the range of 100 to 500 nM. Also, on RORγ LBD, the “RORγ ligand binding assay: % inhibition @1 μM” value is 100%, the “RORγ ligand binding assay: % inhibition @ 10 μM” value is listed as 73% and the IC50 was under 0.15 µM.
As to `Cc1cc(NC(=O)Cc2ccc(S(C)(=O)=O)cc2)nc2c1C(=O)C(C)(c1ncccc1O)CC2` (centres unmarked) [Compound 89, N-(6-(3-hydroxypyridin-2-yl)-4,6-dimethyl-5-oxo-5,6,7,8-tetrahydroquinolin-2-yl)-2-(4-(methylsulfonyl)phenyl)acetamide], the IC50 in assay [2] was over 500 nM. At RORγ LBD, this molecule yielded an inhibition at 1 µM of 53%, an inhibition at 10 µM of 79% and an IC50 of over 0.3 µM.
In the case of `CCS(=O)(=O)c1ccc(CC(=O)Nc2ccc3c(n2)CCC(C)(c2cc(C)nc(C)n2)C3=O)cc1` (single isomer, unassigned) [compound 103, N-(6-(2,6-dimethylpyrimidin-4-yl)-6-methyl-5-oxo-5,6,7,8-tetrahydroquinolin-2-yl)-2-(4-(ethylsulfonyl)phenyl)acetamide], the concentration for half-maximal inhibition (IC50) in assay [2] is over 500 nM. Also, at RORγ LBD, the “RORγ ligand binding assay: % inhibition @1 μM” value is 26% and the “RORγ ligand binding assay: % inhibition @ 10 μM” value is recorded as 0%.
As for `CCS(=O)(=O)c1ccc(CC(=O)Nc2ccc3c(n2)CCC(C)(c2ncc(Cl)n4ccnc24)C3=O)cc1` (centres unmarked) [Compound 92, N-(6-(5-chloroimidazo[1,2-a]pyrazin-8-yl)-6-methyl-5-oxo-5,6,7,8-tetrahydroquinolin-2-yl)-2-(4-(ethylsulfonyl)phenyl)acetamide], in assay [2], the 50% inhibitory concentration (IC50) is 100 to 500 nM. For the same molecule, at RORγ LBD, 1 µM produced 96% inhibition, 10 µM produced 80% inhibition and the IC50 was under 0.15 µM.
As for `CCS(=O)(=O)c1ccc(CC(=O)Nc2cc(C)c3c(n2)CCC(C)(c2cc(C)nc(C)n2)C3=O)cc1` (single isomer, unassigned) [compound 107, N-(6-(2,6-dimethylpyrimidin-4-yl)-4,6-dimethyl-5-oxo-5,6,7,8-tetrahydroquinolin-2-yl)-2-(4-(ethylsulfonyl)phenyl)acetamide], the half-maximal inhibitory concentration (IC50) in assay [2] is 100 to 500 nM. Besides, at RORγ LBD, the inhibition at 1 µM turned out to be 91%, the “RORγ ligand binding assay: % inhibition @ 10 μM” value came to 90% and the IC50 is under 0.15 µM.
In the case of `CCS(=O)(=O)c1ccc(CC(=O)Nc2ccc3c(n2)CC(C)C(c2ncccc2O)C3=O)cc1` (centres unmarked) [Compound 91, 2-(4-(ethylsulfonyl)phenyl)-N-(6-(3-hydroxypyridin-2-yl)-7-methyl-5-oxo-5,6,7,8-tetrahydroquinolin-2-yl)acetamide], the 50% inhibitory concentration (IC50) in assay [2] was over 500 nM. On RORγ LBD, this molecule displayed an inhibition at 1 µM of 36%, an inhibition at 10 µM of 100% and a concentration for half-maximal inhibition (IC50) of over 0.3 µM.
`CCS(=O)(=O)c1ccc(CC(=O)Nc2ccc3c(n2)CCC(C)(c2ccc(OC)nc2)C3=O)cc1` (centres unmarked) [Compound 2, 2-(4-(ethylsulfonyl)phenyl)-N-(6-(6-methoxypyridin-3-yl)-6-methyl-5-oxo-5,6,7,8-tetrahydroquinolin-2-yl)acetamide]: the IC50 in assay [2] was 100 to 500 nM. On RORγ LBD, this molecule registered an inhibition at 1 µM of 84%, an inhibition at 10 µM of 89% and an IC50 of under 0.15 µM.
